Tests used:
PPARα = target: T1, PPARα (Mus musculus, UniProt P23204); test: Electrophoretic mobility shift assay of DNA-binding activity of PPARα; format: cell-based; settings: astrocytes, 5 μM aspirin, different min intervals
T1 construct: endogenous in cells; host or cells: primary mouse astrocytes (nuclear extracts)
T1 sequence (P23204 1-468): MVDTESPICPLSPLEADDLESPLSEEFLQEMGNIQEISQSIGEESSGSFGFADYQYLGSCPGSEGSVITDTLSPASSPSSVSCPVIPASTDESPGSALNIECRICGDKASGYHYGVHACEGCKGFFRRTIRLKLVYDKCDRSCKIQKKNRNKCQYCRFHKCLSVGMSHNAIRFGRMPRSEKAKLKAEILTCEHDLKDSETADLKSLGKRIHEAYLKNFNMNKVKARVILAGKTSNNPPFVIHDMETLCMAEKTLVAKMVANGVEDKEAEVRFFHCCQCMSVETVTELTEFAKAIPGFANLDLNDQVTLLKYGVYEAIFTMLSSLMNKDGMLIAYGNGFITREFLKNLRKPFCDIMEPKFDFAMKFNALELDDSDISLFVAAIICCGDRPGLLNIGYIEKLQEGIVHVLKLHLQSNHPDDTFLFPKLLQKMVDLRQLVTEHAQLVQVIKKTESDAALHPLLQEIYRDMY
T1 sequence (P28700 1-467 partner): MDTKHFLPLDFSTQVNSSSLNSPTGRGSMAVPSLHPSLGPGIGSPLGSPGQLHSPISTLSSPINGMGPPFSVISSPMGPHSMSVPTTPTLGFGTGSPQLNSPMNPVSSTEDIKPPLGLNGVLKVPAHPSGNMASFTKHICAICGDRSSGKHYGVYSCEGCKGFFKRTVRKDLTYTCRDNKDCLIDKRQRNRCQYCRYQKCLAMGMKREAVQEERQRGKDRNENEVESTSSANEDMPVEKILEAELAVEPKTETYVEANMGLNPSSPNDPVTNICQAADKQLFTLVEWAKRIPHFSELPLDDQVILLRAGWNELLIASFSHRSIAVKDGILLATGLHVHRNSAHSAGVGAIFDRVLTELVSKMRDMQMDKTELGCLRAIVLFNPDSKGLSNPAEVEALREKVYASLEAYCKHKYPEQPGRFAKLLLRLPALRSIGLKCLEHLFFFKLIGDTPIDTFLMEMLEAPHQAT
Experimental: FIG. 14(A)-(B) illustrates activation of PPARα by aspirin in primary mouse astrocytes. 14(A) Cells were treated with 5 μM aspirin for different min intervals followed by isolation of nuclear extracts and electrophoretic mobility shift assay for monitoring DNA-binding activity of PPARα using PPARα-binding site of the Tfeb promoter as a probe. 14(B) Astrocytes isolated from wild type, PPARα (−/−) and PPARβ (−/−) mice were transfected with PPAR luciferase reporter (PPRE-x3-TK-luc) plasmid and after 24 h of transfection, cells were stimulated with different doses of aspirin. After 4 h, firefly luciferase activity was measured in total cell extracts. Results are mean +SD of three different experiments. ^ap<0.001 vs control.

Tfeb = test: TFEB immunocytochemistry in mouse primary astrocytes and neurons; format: cell-based; settings: 5 μM aspirin, 12 h
Experimental: Isolation of Primary Mouse Astroglia: Astroglia were isolated from mixed glial cultures as described (24, 25) according to the procedure of Giulian and Baker (26). Briefly, on day 9, the mixed glial cultures were washed three times with Dulbecco's modified Eagle's medium/F-12 and subjected to shaking at 240 rpm for 2 h at 37° C. on a rotary shaker to remove microglia. After 2 days, the shaking was repeated for 24 h for the removal of oligodendroglia and to ensure the complete removal of all nonastroglial cells. The attached cells were seeded onto new plates for further studies.
Isolation of Primary Mouse Neurons: Fetal (E18-E16) mouse neurons were prepared as previously described (27) with modifications. Whole brains were removed and the cells were washed by centrifugation three times at 1200 rpm for 10 min, the pellet dissociated and the cells plated at 10% confluence in 8-well chamber slides pre-treated for >2 hr with Poly-D-Lysine (Sigma, St. Louis, MO). After 4 min, the non-adherent cell suspension was aspirated and […] complete Neurobasal media (Invitrogen) supplemented with 2% B27 was added to each well. The cells were incubated for 4 days prior to experimentation. […] The cells were stimulated with gemfibrozil in Neurobasal media supplemented with 2% B27 minus antioxidants (Invitrogen) for 24 hr prior to methanol fixation and immunostaining.
Immunostaining of Cells: Immunocytochemistry was performed as described earlier (29). Briefly, 8 well chamber slides containing mouse primary astrocytes, mouse neurons were cultured to 70-80% confluence were fixed with chilled Methanol (Fisher Scientific, Waltham, MA) overnight, followed by two brief rinses with filtered PBS. […] The samples were run in an EtOH and Xylene (Fisher) gradient, mounted, and observed under Olympus BX41 fluorescence microscope.

CC(=O)Oc1ccccc1C(=O)O [aspirin]
DNA-binding activity of PPARα (EMSA) (PPARα): time-dependent increase in PPARα activation | TFEB expression (immunofluorescence) (Tfeb; PPARα (−/−) astrocytes): not PPARα (−/−) | TFEB expression (immunofluorescence) (Tfeb; PPARβ (−/−) astrocytes): induced the expression of TFEB | TFEB expression (immunofluorescence) (Tfeb; WT astrocytes): induced the expression of TFEB

From US12023345B2, “Compositions and methods for treating lysosomal disorders” (RUSH UNIVERSITY MEDICAL CENTER, priority 2014, dated 2024)
